Results: US20020165128A1, “Compositions and methods for proteolytically inactivating infectious agents using lactoferrin and related molecules” (priority 1998, published 2002)

Tests used:
[1] = target: lactoferrin extraction of the IgA1 protease preprotein (Homo sapiens, UniProt P02788); assay type: cell-based; conditions: 10 mM inhibitor
[2] = target: T1, lactoferrin-associated proteolysis of H. influenzae Hap (Homo sapiens, UniProt P02788); experiment: Inhibition of lactoferrin-associated proteolysis of Hap by serine protease inhibitor; assay type: cell-based; conditions: 7.5 mM inhibitor in isopropanol, DB117/HapS243A
T1 construct: Lactoferrin amino acids are numbered beginning with the first residue in the mature protein (lacking the signal peptide); purchased Agennix Corporation; host or cells: Aspergillus awamori
Procedure: To determine whether lactoferrin was functioning as a serine protease, the ability of phenylmethylsulfonyl fluoride (PMSF), a broad inhibitor of serine proteases, to inhibit degradation of Hap was examined. DB117/HapS243A was incubated in PBS (Lane 1), PBS with 430 nM A. awamori recombinant lactoferrin (Lane 2), PBS with 430 nM recombinant lactoferrin and 7.5% isopropanol (Lane 3), or PBS with recombinant lactoferrin and 7.5 mM PMSF in isopropanol (Lane 4). Whole cell lysates were prepared and examined by Western blot analysis with antiserum Rab 730, which reacts with the Hap preprotein, HapS, and Hap. The arrowhead indicates the Hap preprotein, and the arrows indicate Hap degradation products.

T1 sequence (P02788 20-710): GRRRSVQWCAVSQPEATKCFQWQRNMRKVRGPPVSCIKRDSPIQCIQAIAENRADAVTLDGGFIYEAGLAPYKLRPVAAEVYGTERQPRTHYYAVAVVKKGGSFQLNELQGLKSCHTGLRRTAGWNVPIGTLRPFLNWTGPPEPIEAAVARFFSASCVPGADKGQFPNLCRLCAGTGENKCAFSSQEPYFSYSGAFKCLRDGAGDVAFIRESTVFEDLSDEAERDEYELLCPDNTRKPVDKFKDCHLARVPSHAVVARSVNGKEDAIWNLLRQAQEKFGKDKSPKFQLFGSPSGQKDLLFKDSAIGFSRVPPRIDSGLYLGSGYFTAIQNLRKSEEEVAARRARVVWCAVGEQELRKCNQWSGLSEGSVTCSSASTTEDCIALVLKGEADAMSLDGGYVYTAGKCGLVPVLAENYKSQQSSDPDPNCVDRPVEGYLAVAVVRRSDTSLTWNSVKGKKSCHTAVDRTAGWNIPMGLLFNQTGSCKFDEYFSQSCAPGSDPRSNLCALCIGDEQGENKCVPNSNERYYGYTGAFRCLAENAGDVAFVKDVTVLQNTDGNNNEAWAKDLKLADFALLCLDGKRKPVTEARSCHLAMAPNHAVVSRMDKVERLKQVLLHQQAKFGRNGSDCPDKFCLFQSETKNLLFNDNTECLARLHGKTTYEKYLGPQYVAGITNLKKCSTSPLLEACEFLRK
lactoferrin extraction of the IgA1 protease preprotein, sequence (P02788 20-710): as above

In the case of `O=S(=O)(F)Cc1ccccc1` [PMSF, phenylmethylsulfonyl fluoride], the “inhibition of lactoferrin extraction of IgA1 protease preprotein” value [1] is reported as “inhibited” and the “inhibition of proteolysis of Hap produced by 430 nM recombinant lactoferrin” value [2] is reported as “significantly inhibited”.
